Experimental data: the NIST ThermoML archive (doi:10.1021/je700260f)

Conditions: 303.15 K, Liquid, Vibrating tube method

FC(C(F)(F)F)C(F)(F)F [1,1,1,2,3,3,3-heptafluoropropane]
Conditions | mass density [kg/m3]
23528 kPa | 1493.1
23717 kPa | 1493.9
23749 kPa | 1494.1
23780 kPa | 1494.1
23812 kPa | 1494.2
23848 kPa | 1494.4
23884 kPa | 1494.5
23911 kPa | 1494.7
23938 kPa | 1494.6
23969 kPa | 1494.8
24001 kPa | 1494.9
24032 kPa | 1495.2
24063 kPa | 1495.2
24107 kPa | 1495.5
24143 kPa | 1495.5
24178 kPa | 1495.8
24209 kPa | 1495.8
24240 kPa | 1495.8
24271 kPa | 1496.1
24303 kPa | 1496.1
24338 kPa | 1496.2
24370 kPa | 1496.4
24397 kPa | 1496.4
24429 kPa | 1496.6
24461 kPa | 1496.8
24496 kPa | 1496.7
24528 kPa | 1497
24559 kPa | 1497.1
24590 kPa | 1497.1
24626 kPa | 1497.4
24654 kPa | 1497.4
24682 kPa | 1497.4
24714 kPa | 1497.6
24750 kPa | 1497.8
24778 kPa | 1497.8
24809 kPa | 1497.9
24844 kPa | 1498.2
24868 kPa | 1498.2
24901 kPa | 1498.4
24928 kPa | 1498.3
24952 kPa | 1498.5
24987 kPa | 1498.7
25022 kPa | 1498.7
25049 kPa | 1498.9
25077 kPa | 1498.9
25110 kPa | 1499.1
25135 kPa | 1499.1
25167 kPa | 1499.3
25195 kPa | 1499.1
25223 kPa | 1499.5
25247 kPa | 1499.5
25287 kPa | 1499.7
25310 kPa | 1499.8
25346 kPa | 1499.9
25370 kPa | 1499.9
25411 kPa | 1500.1
25443 kPa | 1500.1
25467 kPa | 1500.4
25503 kPa | 1500.4
25528 kPa | 1500.5
25561 kPa | 1500.7
25602 kPa | 1500.8
25630 kPa | 1501
25658 kPa | 1501.1
25686 kPa | 1501
25715 kPa | 1501.2
25740 kPa | 1501.3
25774 kPa | 1501.4
25801 kPa | 1501.6
25837 kPa | 1501.5
25858 kPa | 1501.5
25891 kPa | 1501.9
25911 kPa | 1501.9
25944 kPa | 1502
25972 kPa | 1502.1
26000 kPa | 1502.2
26025 kPa | 1502.4
26056 kPa | 1502.4
26076 kPa | 1502.6
26109 kPa | 1502.6
26134 kPa | 1502.8
26158 kPa | 1502.9
26191 kPa | 1502.9
26216 kPa | 1502.9
26252 kPa | 1503
26284 kPa | 1503.3
26307 kPa | 1503.3
26336 kPa | 1503.4
26361 kPa | 1503.5
26394 kPa | 1503.6
26418 kPa | 1503.8
26512 kPa | 1503.9
26545 kPa | 1504.1
26714 kPa | 1504.6
26743 kPa | 1504.8
26776 kPa | 1504.9
26801 kPa | 1505.1
26834 kPa | 1505.2
26858 kPa | 1505.2
26891 kPa | 1505.3
26924 kPa | 1505.5
26948 kPa | 1505.5
